Experimental data taken from patent publication US20260185169A1, “MOLECULAR SIGNATURES TO PREDICT LONG-TERM LIVER FIBROSIS PROGRESSION” (THE BOARD OF REGENTS OF THE UNIVERSITY OF TEXAS SYSTEM, priority 2022, published 2026).

Tested on: clinical PCLS tissues
Assay: FPS/PLS response (CES, nCounter) in organotypic ex vivo culture of clinical PCLS tissues
Format: cell-based, human
Excerpt: Evaluation of galunisertib, erlotinib, AM095, bortezomib, pioglitazone, metformin, epigallocatechin gallate (EGCG), I-BET 151, JQ1, captopril, nizatidine (Selleck Chemicals); MG-132 (Sigma-Aldrich); cenicriviroc (AbbVie) (Table 2) were done in organotypic ex vivo culture of precision-cut liver slice (PCLS) tissues in the FPS validation set 2 as previously described. Patient-derived liver cell spheroids were generated from a cirrhosis patient and high-risk FPS was induced by free fatty acids, and treated with EGCG, bortezomib, cenicriviroc, and/or bezafibrate for 48 h. Mycoplasma-free human hepatic myofibroblast cell lines, LX-2 and TWNT-4, were cultured with MG-132 (20 μM) or DMSO control for 12 and 24 h in triplicates.
Total RNA was isolated from fixed tissue sections by using High Pure RNA Paraffin kit (Roche), and assessed for quality by qRT-PCR of RPL13A. Total RNA from the PCLS tissues was isolated using RNeasy kit (Qiagen). RNA samples (100-200 ng) were subjected to the PLS/FPS assay implemented in the nCounter platform (NanoString), and transcriptome profiling of the CENTAUR trial samples was performed by RNA-Seq (TrueSeq RNA Access, Illumina). Expression of BCL2, COL1A1, and ACTA2 genes was measured by qRT-PCR (Table 3). Serum protein profiling was performed by using xMAP assay (Luminex).
Total RNA was isolated from three to five 10-μm-thick formalin-fixed paraffin-embedded (FFPE) tissue sections from the PLS/FPS derivation/validation cohorts by using High Pure RNA Paraffin kit (Roche), and lack of severe RNA fragmentation was confirmed by qRT-PCR of a housekeeping gene RPL13A as previously described.^1 From freshly harvested myofibroblast cell lines, LX-2 and TWNT-4, and clinical precision-cut-liver slice (PCLS) tissues stored in RNAlater (ThermoFisher) at −80?C, total RNA was isolated using RNeasy kit (Qiagen), and the RNA integrity number (RIN)>8 by Bioanalyzer (Agilent) was regarded as sufficient quality for expression analysis. Total RNA samples (100 to 500 ng) were subjected to the gene signature assays implemented in the digital transcript counting technology (NanoString) according to manufacturer's instruction. Poor quality profiles were detected based on maximum signal intensity from positive control probes <3,000U. Raw transcript count data were log-transformed (base 2) and scaled by geometric mean of control probe data by using NanoString normalizer module implemented in GenePattern data analysis suite (www.broadinstitute.org/genepattern). Genome-wide transcriptome profiling of the CENTAUR trial samples was performed using 100 to 200 ng total RNA by RNA-Seq using exome-enriched library preparation according to the manufacturer's protocol (TrueSeq, Illumina). Raw sequencing reads were mapped onto the reference human genome (hg19) by using the STAR aligner (ver. 2.6.1b) followed by the read counting on genes via featureCounts in the Subread package (ver. 1.6.1). The raw read counts were further normalized by using the Relative Log Expression (RLE) implemented in the DESeq2 package (ver. 1.22.2). Expression of COL1A1, and ACTA2, and BCL2 genes was measured by qRT-PCR (BioRad) using ddCt method with RPL13A as housekeeping gene, as previously described (refer Table 3 for the primer sequences). Gene expression profiles of the PLS/FPS-inducible cell culture model (cell-culture-derived PLS [cPLS] system) treated with erlotinib, pioglitazone, captopril, and resveratrol were obtained from our previous study (GSE81801).

## CCCCOCCOc1ccc(-c2ccc3c(c2)/C=C(/C(=O)Nc2ccc([S@@+]([O-])Cc4cncn4CCC)cc2)CCCN3CC(C)C)cc1 [Cenicriviroc]
Count of patients with CES-based FPS response, PCLS cultured 24 h with agent vs vehicle
  FPS response rate (number of responding patients): 4
Count of patients with PLS response, ex vivo PCLS culture
  PLS response rate (number of responding patients): 7
